# Tests used:
# barnyardgrass [1] = test: Test A pre-/postemergence herbicide test; assay type: in vivo, Echinochloa crus-galli
# Summary of the method: (§1)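 Both application timings were run together: directed soil spray over freshly planted seeds in sandy loam, and runoff spray onto 2–10 cm seedlings. Evaluation after ~10 days in greenhouse used a 0–100 visual scale versus untreated controls.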
# large crabgrass [2] = test: Test A pre-/postemergence herbicide test; assay type: in vivo, Digitaria sanguinalis
# Summary of the method: as §1
# giant foxtail [3] = test: Test A pre-/postemergence herbicide test; assay type: in vivo, Setaria faberi
# Summary of the method: as §1
# morningglory [4] = test: Test A pre-/postemergence herbicide test; assay type: in vivo, Ipomoea spp.
# Summary of the method: as §1
# redroot pigweed = test: Test A pre-/postemergence herbicide test; assay type: in vivo, Amaranthus retroflexus
# Summary of the method: as §1
# velvetleaf [5] = test: Test A pre-/postemergence herbicide test; assay type: in vivo, Abutilon theophrasti
# Summary of the method: as §1
# barnyardgrass [6] = test: Test B pre-/postemergence herbicide test; assay type: in vivo, Echinochloa crus-galli; details: for Plant response rating, Barnyardgrass: preemergence; for Barnyardgrass plant response rating: postemergence, visual rating, scale 0 (no effect) to 100 (complete control)
# Summary of the method: (§2)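 Visual rating, 0 (no effect) to 100 (complete control), versus untreated controls after 13–15 d in greenhouse. Pre- and postemergence applications (postemergence plants 2–18 cm, 1–4 leaves); flooded paddy arm at 2-leaf stage. Compounds in non-phytotoxic solvent plus surfactant.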
# Surinam grass = test: Test B pre-/postemergence herbicide test; assay type: in vivo, Urochloa decumbens; details: for Plant response rating, Surinam Grass: preemergence; for Surinam Grass plant response rating: postemergence, visual rating, scale 0 (no effect) to 100 (complete control)
# Summary of the method: (§3)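 Seeds were planted and treated preemergence with compounds formulated in a non-phytotoxic solvent mixture containing surfactant, while plants at the 1- to 4-leaf stage (2 to 18 cm) received postemergence sprays. Flooded paddy plants were grown to the 2-leaf stage. After 13 to 15 days in a greenhouse, injury was visually rated 0–100 against untreated controls.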
# cocklebur = test: Test B pre-/postemergence herbicide test; assay type: in vivo, Xanthium strumarium; details: for Plant response rating, Cocklebur: preemergence; for Cocklebur plant response rating: postemergence, visual rating, scale 0 (no effect) to 100 (complete control)
# Summary of the method: as §2
# corn = test: Test B pre-/postemergence herbicide test; assay type: in vivo, Zea mays; details: for Plant response rating, Corn: preemergence; for Corn plant response rating: postemergence, visual rating, scale 0 (no effect) to 100 (complete control)
# Summary of the method: as §3
# large crabgrass [7] = test: Test B pre-/postemergence herbicide test; assay type: in vivo, Digitaria sanguinalis; details: for Plant response rating, Crabgrass, Large: preemergence; for Crabgrass, Large plant response rating: postemergence, visual rating, scale 0 (no effect) to 100 (complete control)
# Summary of the method: as §3
# giant foxtail [8] = test: Test B pre-/postemergence herbicide test; assay type: in vivo, Setaria faberi; details: for Plant response rating, Foxtail, Giant: preemergence; for Foxtail, Giant plant response rating: postemergence, visual rating, scale 0 (no effect) to 100 (complete control)
# Summary of the method: as §3
# lambsquarters = test: Test B pre-/postemergence herbicide test; assay type: in vivo, Chenopodium album; details: for Plant response rating, Lambsquarters: preemergence; for Lambsquarters plant response rating: postemergence, visual rating, scale 0 (no effect) to 100 (complete control)
# Summary of the method: as §3
# morningglory [9] = test: Test B pre-/postemergence herbicide test; assay type: in vivo, Ipomoea coccinea; details: for Morningglory plant response rating: postemergence, visual rating, scale 0 (no effect) to 100 (complete control)
# Summary of the method: as §2
# pigweed = test: Test B pre-/postemergence herbicide test; assay type: in vivo, Amaranthus retroflexus; details: for Plant response rating, Pigweed: preemergence; for Pigweed plant response rating: postemergence, visual rating, scale 0 (no effect) to 100 (complete control)
# Summary of the method: as §3
# rice [10] = test: Test B pre-/postemergence herbicide test; assay type: in vivo, Oryza sativa; details: 500 g ai/ha; visual rating 0-100, 0 no effect, 100 complete control; preemergence
# Summary of the method: as §3
# velvetleaf [11] = test: Test B pre-/postemergence herbicide test; assay type: in vivo, Abutilon theophrasti; details: for Plant response rating, Velvetleaf: preemergence; for Velvetleaf plant response rating: postemergence, visual rating, scale 0 (no effect) to 100 (complete control)
# Summary of the method: as §3
# blackgrass = test: Test B postemergence herbicide test; assay type: in vivo, Alopecurus myosuroides; details: postemergence, visual rating, scale 0 (no effect) to 100 (complete control)
# Summary of the method: (§4)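 Visual ratings, 0 (no effect) to 100 (complete control), made versus controls after 13–15 d greenhouse. Paddy plants treated at 2-leaf stage; postemergence plants at 1- to 4-leaf stage, 2–18 cm tall.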
# wheat = test: Test B postemergence herbicide test; assay type: in vivo, Triticum aestivum; design: key to Wheat plant response rating: 0 = no effect, 100 = complete control; details: postemergence, visual rating, scale 0 (no effect) to 100 (complete control)
# Summary of the method: (§5)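 After treating 2-leaf paddy plants or 2–18 cm postemergence plants (1 to 4 leaves) with formulated chemical, researchers kept them in a greenhouse for 13–15 days. Effects were judged visually versus controls: 0 indicates none, 100 total control.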
# wild oat = test: Test B postemergence herbicide test; assay type: in vivo, Avena fatua; details: postemergence, visual rating, scale 0 (no effect) to 100 (complete control)
# Summary of the method: as §5
# rice [12] = test: Test B flooded paddy test; assay type: in vivo, Oryza sativa; details: 1000 g ai/ha, visual rating, scale 0 to 100 (0 no effect, 100 complete control), 13 to 15 days
# Summary of the method: as §4
# [13] = test system: small flower umbrella sedge; test: Test B flooded paddy test; assay type: in vivo, Cyperus difformis; details: 1000 g ai/ha, visual rating, scale 0 to 100 (0 no effect, 100 complete control), 13 to 15 days
# Summary of the method: as §4
# ducksalad = test: Test B flooded paddy test; assay type: in vivo, Heteranthera limosa; details: 1000 g ai/ha, visual rating, scale 0 to 100 (0 no effect, 100 complete control), 13 to 15 days
# Summary of the method: as §4
# barnyardgrass [14] = test: Test B flooded paddy test; assay type: in vivo, Echinochloa crus-galli; details: 1000 g ai/ha, visual rating, scale 0 to 100 (0 no effect, 100 complete control), 13 to 15 days
# Summary of the method: as §4
# [15] = Postemergence, 250 g ai/ha, 0 to 100 scale, 0 no effect, 100 complete control
# [16] = Postemergence, 1000 g ai/ha, 0 to 100 scale, 0 no effect, 100 complete control
# [17] = Preemergence, 1000 g ai/ha, visual rating, 0 to 100 scale (0 no effect, 100 complete control)
# [18] = preemergence, 250 g ai/ha, visual injury, 0 to 100 scale (0 no effect, 100 complete control)
# [19] = 500 g ai/ha, visual rating 0-100, 0 no effect, 100 complete control
# [20] = 125 g ai/ha, 0 to 100 scale, 0 is no effect, 100 is complete control
smiles,measurement,setting,value
CCn1nc(C(C)(C)C)cc1C(=O)Nc1cccc([S+]([O-])C(F)(F)F)c1 (centres unmarked) [Compound 135],Barnyardgrass plant response rating,barnyardgrass [1]; [15],30
same,"Plant response rating, Barnyardgrass",barnyardgrass [1]; [16],50
same,Barnyardgrass plant response rating,barnyardgrass [1]; [17],65
same,Barnyardgrass plant response rating,barnyardgrass [1]; [18],35
same,"Crabgrass, Large plant response rating",large crabgrass [2]; [15],20
same,"Plant response rating, Crabgrass, Large",large crabgrass [2]; [16],30
same,"Crabgrass, Large plant response rating",large crabgrass [2]; [17],90
same,"Crabgrass, Large plant response rating",large crabgrass [2]; [18],40
same,"Foxtail, Giant plant response rating",giant foxtail [3]; [15],20
same,"Plant response rating, Foxtail, Giant",giant foxtail [3]; [16],30
same,"Foxtail, Giant plant response rating",giant foxtail [3]; [17],50
same,"Foxtail, Giant plant response rating",giant foxtail [3]; [18],10
same,Morningglory plant response rating,morningglory [4]; [15],10
same,"Plant response rating, Morningglory",morningglory [4]; [16],10
same,Morningglory plant response rating,morningglory [4]; [17],25
same,Morningglory plant response rating,morningglory [4]; [18],0
same,Pigweed plant response rating,redroot pigweed; [15],80
same,"Plant response rating, Pigweed",redroot pigweed; [16],85
same,Pigweed plant response rating,redroot pigweed; [17],85
same,Pigweed plant response rating,redroot pigweed; [18],55
same,Velvetleaf plant response rating,velvetleaf [5]; [15],15
same,"Plant response rating, Velvetleaf",velvetleaf [5]; [16],25
same,Velvetleaf plant response rating,velvetleaf [5]; [17],50
same,Velvetleaf plant response rating,velvetleaf [5]; [18],5
same,"Plant response rating, Barnyardgrass",barnyardgrass [6]; [19],50
same,Barnyardgrass plant response rating,barnyardgrass [6]; 125 g ai/ha,20
same,Barnyardgrass plant response rating,barnyardgrass [6]; 500 g ai/ha,40
same,"Plant response rating, Barnyardgrass",barnyardgrass [6]; [20],40
same,"Plant response rating, Surinam Grass",Surinam grass; [19],30
same,Surinam Grass plant response rating,Surinam grass; 125 g ai/ha,30
same,Surinam Grass plant response rating,Surinam grass; 500 g ai/ha,40
same,"Plant response rating, Surinam Grass",Surinam grass; [20],10
same,"Plant response rating, Cocklebur",cocklebur; [19],0
same,Cocklebur plant response rating,cocklebur; 125 g ai/ha,40
same,Cocklebur plant response rating,cocklebur; 500 g ai/ha,90
same,"Plant response rating, Cocklebur",cocklebur; [20],0
same,"Plant response rating, Corn",corn; [19],0
same,Corn plant response rating,corn; 125 g ai/ha,20
same,Corn plant response rating,corn; 500 g ai/ha,30
same,"Plant response rating, Corn",corn; [20],0
same,"Plant response rating, Crabgrass, Large",large crabgrass [7]; [19],90
same,"Crabgrass, Large plant response rating",large crabgrass [7]; 125 g ai/ha,20
same,"Crabgrass, Large plant response rating",large crabgrass [7]; 500 g ai/ha,30
same,"Plant response rating, Crabgrass, Large",large crabgrass [7]; [20],50
same,"Plant response rating, Foxtail, Giant",giant foxtail [8]; [19],20
same,"Foxtail, Giant plant response rating",giant foxtail [8]; 125 g ai/ha,30
same,"Foxtail, Giant plant response rating",giant foxtail [8]; 500 g ai/ha,40
same,"Plant response rating, Foxtail, Giant",giant foxtail [8]; [20],10
same,"Plant response rating, Lambsquarters",lambsquarters; [19],100
same,Lambsquarters plant response rating,lambsquarters; 125 g ai/ha,70
same,Lambsquarters plant response rating,lambsquarters; 500 g ai/ha,80
same,"Plant response rating, Lambsquarters",lambsquarters; [20],30
same,Morningglory plant response rating,morningglory [9]; 125 g ai/ha,30
same,Morningglory plant response rating,morningglory [9]; 500 g ai/ha,50
same,"Plant response rating, Morningglory","morningglory [9]; preemergence, 125 g ai/ha, 0 to 100 scale, 0 is no effect, 100 is complete control",10
same,"Plant response rating, Pigweed",pigweed; [19],100
same,Pigweed plant response rating,pigweed; 125 g ai/ha,80
same,Pigweed plant response rating,pigweed; 500 g ai/ha,90
same,"Plant response rating, Pigweed",pigweed; [20],60
same,"Plant response rating, Rice",rice [10],30
same,"Plant response rating, Velvetleaf",velvetleaf [11]; [19],50
same,Velvetleaf plant response rating,velvetleaf [11]; 125 g ai/ha,20
same,Velvetleaf plant response rating,velvetleaf [11]; 500 g ai/ha,30
same,"Plant response rating, Velvetleaf",velvetleaf [11]; [20],30
same,Blackgrass plant response rating,blackgrass; 125 g ai/ha,0
same,Blackgrass plant response rating,blackgrass; 500 g ai/ha,0
same,Wheat plant response rating,wheat; 125 g ai/ha,20
same,Wheat plant response rating,wheat; 500 g ai/ha,20
same,"Oat, Wild plant response rating",wild oat; 125 g ai/ha,20
same,"Oat, Wild plant response rating",wild oat; 500 g ai/ha,20
same,Rice plant response rating,rice [12],60
same,"Sedge, Umbrella plant response rating",[13],70
same,Ducksalad plant response rating,ducksalad,80
same,Barnyardgrass plant response rating,barnyardgrass [14],60

# — US20060069132A1, “Azolecarboxamide herbicides” (priority 2004, published 2006)
